# Article PMC9653733, “Characterization of a Potent, Selective, and Safe Inhibitor, Ac15(Az8)2, in Reversing Multidrug Resistance Mediated by Breast Cancer Resistance Protein (BCRP/ABCG2)” (International Journal of Molecular Sciences, 2022)
# Like-named read-outs stand apart in the source and are kept apart here.
# What was measured:
# [1] = tested on: L929; assay: Cytotoxicity towards normal mouse fibroblast cells L929; assay type: cell-based; details: value without asterisk
# [2] = molecular target: T1, BCRP (Homo sapiens, UniProt Q9UNQ0, R482G); assay: Lineweaver-Burk and Dixon plots of DOX retention in S1M180; assay type: cell-based; details: for Ki: S1M180, DOX retention
# T1 construct: endogenous in cells; host or cells: S1M180 (human colon carcinoma, mitoxantrone-selected)
# T1 sequence (Q9UNQ0 1-655 R482G): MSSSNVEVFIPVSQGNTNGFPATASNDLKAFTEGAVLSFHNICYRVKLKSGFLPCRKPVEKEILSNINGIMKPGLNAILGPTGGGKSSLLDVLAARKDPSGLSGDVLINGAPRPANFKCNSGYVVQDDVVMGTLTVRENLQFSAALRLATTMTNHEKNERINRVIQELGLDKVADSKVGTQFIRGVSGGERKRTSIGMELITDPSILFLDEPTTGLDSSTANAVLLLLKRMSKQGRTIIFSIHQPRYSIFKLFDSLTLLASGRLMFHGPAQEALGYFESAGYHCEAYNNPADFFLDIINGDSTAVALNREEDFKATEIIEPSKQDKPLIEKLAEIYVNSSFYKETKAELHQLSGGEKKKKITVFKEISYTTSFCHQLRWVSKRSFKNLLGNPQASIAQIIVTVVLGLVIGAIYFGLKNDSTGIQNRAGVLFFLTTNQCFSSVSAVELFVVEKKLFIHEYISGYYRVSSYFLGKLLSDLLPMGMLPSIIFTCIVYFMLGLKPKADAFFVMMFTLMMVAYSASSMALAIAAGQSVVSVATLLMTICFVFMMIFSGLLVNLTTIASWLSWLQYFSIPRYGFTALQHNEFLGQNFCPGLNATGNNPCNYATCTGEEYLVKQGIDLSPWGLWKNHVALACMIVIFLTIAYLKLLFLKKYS
# Description: We investigated the biochemical mechanism by which Ac15(Az8)2 inhibits BCRP. S1M180 cells were incubated with DOX and Ac15(Az8)2 at different concentrations. DOX accumulation was measured and analyzed by Lineweaver–Burk plot. […] Moreover, it is implied that DOX and Ac15(Az8)2 are not binding to the same site on BCRP. The apparent inhibition constant (Ki) can be calculated by either the Lineweaver–Burk plot (inset of Figure 5A) or the Dixon plot (Figure 5B).
# Figure 5 Lineweaver–Burk and Dixon plot for Ac15(Az8)2 and DOX. S1M180 cells were incubated with different concentrations of Ac15(Az8)2 and DOX. The cells were pre-treated with Ac15(Az8)2 for 2 h and then incubated with DOX for 1 h at 37 °C. After incubation, the cells were washed with ice-cold PBS, and the intracellular DOX level was measured. (A) In Lineweaver–Burk plot, the reciprocal of DOX retention rate (V, μM/min/500,000 cells) is plotted against reciprocal of DOX concentration used. Six lines of Ac15(Az8)2 pass through the same intercepts at the x-axis, which is Km for the DOX. […] (B) In Dixon plot, reciprocal of DOX retention rate (1/V) was plotted against concentration of Ac15(Az8)2.
# [3] = molecular target: T2, BCRP-ATPase (Homo sapiens, UniProt Q9UNQ0, R482G); assay: Vanadate-sensitive BCRP-ATPase activity (S1M180 microsome fraction); assay type: biochemical; details: 2.5 mM ATP, 1 h
# T2 construct: endogenous in cells; host or cells: S1M180 (human colon carcinoma, mitoxantrone-selected)
# T2 sequence (Q9UNQ0 1-655 R482G): T1 sequence (Q9UNQ0 1-655 R482G)
# Description: Ouabain (Na^+/K^+-ATPase inhibitor) and sodium azide (F-type ATPase inhibitor) were added to S1M180 microsome fraction to inhibit non-ABC transporter ATPase activities. Sodium orthovanadate inhibits ABC transporter ATPase activity and is used to calculate vanadate-ensitive activity by subtraction from the total ATPase activity (without sodium orthovanadate). […] After reaction was stopped, inorganic phosphate level was determined using colorimetry method. The percentages of vanadate-sensitive BCRP-ATPase activity were shown as mean ± S.D.
# The membrane fraction of S1M180 cells was prepared as previously reported [48]. […] The absorbance of 655 nm was measured by CLARIOstar® microplate reader (BMG). […]
# [4] = Pharmacokinetics of Ac15(Az8)2 in mice; assay type: in vivo; details: female, Balb/c, mouse, ip, 45 mg/kg I.P., plasma
# Description: Ac15(Az8)2 and topotecan in plasma were analyzed by UPLC–MS/MS. UPLC (Acquity Waters) and triple quadrupole mass analyzer (Quattro Ultima) with an electrospray ionization source in the positive mode were used to quantify Ac15(Az8)2 and topotecan. Acquity UPLC BEH C8 and C18 column (1.7 µm 2.1 × 50 mm) from Waters was used to separate Ac15(Az8)2 and topotecan, respectively. Mobile phases used for Ac15(Az8)2 analysis were water and acetonitrile. Ac15(Az8)2 and its internal standard Ac15(Az5)2 (Figure S2) were monitored at m/z 608 → m/z 149 and m/z 594 → […], respectively. Mobile phases used for topotecan analysis were water and methanol. Topotecan and its internal standard tetracycline were monitored at m/z 422 → m/z 377 and m/z 445 → m/z 410, respectively.
# Female Balb/c mice at 4–6 weeks were used for the pharmacokinetic studies. Ac15(Az8)2 at 4 mg/mL was prepared in 10% NMP, 10% Cremophor-EL and 80% H2O. Topotecan was dissolved in H2O at 1 mg/mL, and 45 mg/kg Ac15(Az8)2 was administered through intraperitoneal (I.P.) injection. Blood was collected at 10, 30, 60, 70, 90, 120, 180, 240, 300, 480, 720 and 1440 min by cardiac puncture and stored in heparinized tubes for centrifugation at 16,000 g for 5 min. For topotecan pharmacokinetic study, 2 mg/kg topotecan was I.P. administered one hour after 45 mg/kg Ac15(Az8)2 or solvent injection. Blood was collected at 10, 30, 60, 120, 240 and 480 min post-topotecan administration. All animal studies were approved by the Animal Subjects Ethics Sub-committee of the Hong Kong Polytechnic University and performed in accordance with the Cap340 Animal License of the Department of Health in Hong Kong.
# [5] = tested on: S1M180 xenograft; assay: In vivo topotecan accumulation in tumor and plasma of S1M180-bearing mice; details: 45 mg/kg Ac15(Az8)2 I.P. one hour prior to 6 mg/kg topotecan I.P.; 5 h post administration
# From the text: (A) S1 xenograft. (B) S1M180 xenograft. There were 3 treatment groups in S1 and S1M180 xenograft model. Treatments were given as indicated by an arrow (↑). % of tumor volume reduction was compared among different treatment groups on days 55 and 71. a, b, and c = mean tumor volume of solvent control, topotecan alone, and combination treatment groups on day 55, respectively. d and e = mean tumor volume of topotecan alone and combination treatment groups on day 71. (C) Tumor weight of S1M180-bearing mice on termination day. (D) % change of tumor volume and tumor doubling time of S1M180 xenograft were determined on days 55 and 71. […] Number of animal death was monitored during the efficacy study. (E) Body weight of S1M180-bearing mice. (F) To measure plasma and intratumor level of topotecan, S1M180-bearing mice were administered with 45 mg/kg (I.P.) of Ac15(Az8)2 one hour prior to 6 mg/kg (I.P.) of topotecan administration. Five hours after topotecan administration, the mice were sacrificed. Plasma and tumor were collected for analyzing topotecan level using UPLC–MS/MS. Student’s unpaired two-tailed t-test was performed between combination group and topotecan alone group or solvent control group as indicated (* p < 0.05, ** p < 0.01, *** p < 0.001).
smiles,measurement,setting,value
COC(=O)c1cccc(COc2c(-c3ccc(OCCOCCn4cc(CN(Cc5ccccc5)Cc5cn(CCOCCOc6ccc(-c7oc8ccccc8c(=O)c7OCc7cccc(C(=O)OC)c7)cc6)nn5)nn4)cc3)oc3ccccc3c2=O)c1 [Ac15(Az8)2],IC50,[1],> 500000 nM
same,Ki,"[2]; Lineweaver–Burk and Dixon, read-out: Apparent inhibition constant (Ki), range of both plots",230 to 295 nM
same,Ki,"[2]; read-out: Ki, Dixon plot",230 nM
same,Ki,"[2]; slope of double reciprocal plots vs concentration, read-out: Apparent Ki, Lineweaver–Burk plot",295 nM
same,Relationship with DOX in binding to BCRP,[2]; did not affect Km but reduced Vmax,non-competitive
same,IC50,[3],7.5 nM
same,AUC(0-inf),[4],83500 ng·h/mL
same,Cmax,[4],15700 ng/mL
same,Tmax,[4],3 h
same,half-life,[4]; read-out: Half-life (E-phase) (converted),10.6 h
same,Effect on plasma level of topotecan,[5],did not change significantly
